Tested on: Nrf2 transcriptional activity (pARE-Luc reporter) in HepG2 cells
Assay: In vitro Nrf2 transcriptional activity measurement by ARE-dependent reporter assay in HepG2 cell
Format: cell-based, human
Conditions: Homo sapiens; HepG2 cells transfected with pARE-Luc, 4 hours at 37° C.; luciferase activity of Example 1-54 or Example 17-23 at 3.75 μM defined as 100%
Outline: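 Luminescence readout (Bright-Glo) after 4 h, 37° C compound exposure of HepG2 cells carrying the ARE-luciferase vector pGL4.37. Each well converted to % response versus reference compound at 3.75 μM, and EC50 derived from dose-response curves.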

EC50 | Compound
2.1 nM | CC(C)(C)OC(=O)N1CCN(c2cc(Cl)c(C(=O)N3COc4c(cccc4-c4cc(N5CCOCC5)c(C(=O)O)cc4F)C3)c(Cl)c2)CC1 [Compound 4-29, 4-[3-[2,6-Dichloro-4-[4-[(2-methylpropan-2-yl)oxycarbonyl]piperazin-1-yl]benzoyl]-2,4-dihydro-1,3-benzoxazin-8-yl]-5-fluoro-2-morpholin-4-ylbenzoic acid]
1.1 nM | COCC1CN(c2cc(Cl)c(C(=O)N3COc4c(cccc4-c4cc(N5CCOCC5)c(C(=O)O)cc4F)C3)c(Cl)c2)CCN1C (stereo not drawn) [Compound 4-30, 4-[3-[2,6-Dichloro-4-[3-(methoxymethyl)-4-methylpiperazin-1-yl]benzoyl]-2,4-dihydro-1,3-benzoxazin-8-yl]-5-fluoro-2-morpholin-4-ylbenzoic acid]
1.2 nM | CN1CCN(c2cc(Cl)c(C(=O)N3COc4c(cccc4-c4cc(N5CCOCC5)c(C(=O)O)cc4F)C3)c(Cl)c2)CC12CC2 [Compound 4-31, 4-[3-[2,6-Dichloro-4-(4-methyl-4,7-diazaspiro[2.5]octan-7-yl)benzoyl]-2,4-dihydro-1,3-benzoxazin-8-yl]-5-fluoro-2-morpholin-4-ylbenzoic acid]
6.9 nM | Cc1cc(-c2cccc3c2OCN(C(=O)c2c(Cl)cc(N4CCOCC4)cc2Cl)C3)cc(N2CCOCC2)c1C(=O)O [Compound 4-32, 4-[3-(2,6-Dichloro-4-morpholin-4-ylbenzoyl)-2,4-dihydro-1,3-benzoxazin-8-yl]-2-methyl-6-morpholin-4-ylbenzoic acid]
5.1 nM | O=C(O)c1cc(F)c(-c2cccc3c2OCN(C(=O)c2ccc(N4CC5(COC5)C4)cc2Cl)C3)cc1N1CCOCC1 [Compound 4-33, 4-[3-[2-Chloro-4-(2-oxa-6-azaspiro[3.3]heptan-6-yl)benzoyl]-2,4-dihydro-1,3-benzoxazin-8-yl]-5-fluoro-2-morpholin-4-ylbenzoic acid]
16 nM | CN(C)CCOc1cc(Cl)c(C(=O)N2COc3c(cccc3-c3ccc(C(=O)O)c(N4CCOCC4)c3)C2)c(Cl)c1 [Compound 4-44, 4-[3-[2,6-Dichloro-4-[2-(dimethylamino)ethoxy]benzoyl]-2,4-dihydro-1,3-benzoxazin-8-yl]-2-morpholin-4-ylbenzoic acid]
14 nM | Cn1cc(Oc2cc(Cl)c(C(=O)N3COc4c(cccc4-c4cc(N5CCOCC5)c(C(=O)O)cc4F)C3)c(Cl)c2)cn1 [Compound 4-46, 4-[3-[2,6-Dichloro-4-(1-methylpyrazol-4-yl)oxybenzoyl]-2,4-dihydro-1,3-benzoxazin-8-yl]-5-fluoro-2-morpholin-4-ylbenzoic acid]
3.3 nM | COCCN1CCC(Oc2cc(Cl)c(C(=O)N3COc4c(cccc4-c4cc(N5CCOCC5)c(C(=O)O)cc4F)C3)c(Cl)c2)CC1 [Compound 4-47, 4-[3-[2,6-Dichloro-4-[1-(2-methoxyethyl)piperidin-4-yl]oxybenzoyl]-2,4-dihydro-1,3-benzoxazin-8-yl]-5-fluoro-2-morpholin-4-ylbenzoic acid]
2.6 nM | CN1CCC(COc2cc(Cl)c(C(=O)N3COc4c(cccc4-c4cc(N5CCOCC5)c(C(=O)O)cc4F)C3)c(Cl)c2)CC1 [Compound 4-48, 4-[3-[2,6-Dichloro-4-[(1-methylpiperidin-4-yl)methoxy]benzoyl]-2,4-dihydro-1,3-benzoxazin-8-yl]-5-fluoro-2-morpholin-4-ylbenzoic acid]
1.2 nM | O=C(O)c1cc(F)c(-c2cccc3c2OCN(C(=O)c2c(Cl)cc(OCCCN4CCOCC4)cc2Cl)C3)cc1N1CCOCC1 [Compound 4-49, 4-[3-[2,6-Dichloro-4-(3-morpholin-4-ylpropoxy)benzoyl]-2,4-dihydro-1,3-benzoxazin-8-yl]-5-fluoro-2-morpholin-4-ylbenzoic acid]
2.8 nM | CN1CC[C@@H](Oc2cc(Cl)c(C(=O)N3COc4c(cccc4-c4cc(N5CCOCC5)c(C(=O)O)cc4F)C3)c(Cl)c2)C1 [Compound 4-50, 4-[3-[2,6-Dichloro-4-[(3R)-1-methylpyrrolidin-3-yl]oxybenzoyl]-2,4-dihydro-1,3-benzoxazin-8-yl]-5-fluoro-2-morpholin-4-ylbenzoic acid]
1.1 nM | CN1CCC(Oc2cc(Cl)c(C(=O)N3COc4c(cccc4-c4cc(N5CCOCC5)c(C(=O)O)cc4F)C3)c(Cl)c2)CC1 [Compound 4-52, 4-[3-[2,6-Dichloro-4-(1-methylpiperidin-4-yl)oxybenzoyl]-2,4-dihydro-1,3-benzoxazin-8-yl]-5-fluoro-2-morpholin-4-ylbenzoic acid]
2.9 nM | CN1CCCC(Oc2cc(Cl)c(C(=O)N3COc4c(cccc4-c4cc(N5CCOCC5)c(C(=O)O)cc4F)C3)c(Cl)c2)C1 (stereo not drawn) [Compound 4-53, 4-[3-[2,6-Dichloro-4-(1-methylpiperidin-3-yl)oxybenzoyl]-2,4-dihydro-1,3-benzoxazin-8-yl]-5-fluoro-2-morpholin-4-ylbenzoic acid]
1.2 nM | CCOc1cc(Cl)c(C(=O)N2COc3c(cccc3-c3cc(N4CCOCC4)c(C(=O)O)cc3F)C2)cc1OC [Compound 4-54, 4-[3-(2-Chloro-4-ethoxy-5-methoxybenzoyl)-2,4-dihydro-1,3-benzoxazin-8-yl]-5-fluoro-2-morpholin-4-ylbenzoic acid]
2 nM | COCCOc1cc(Cl)c(C(=O)N2COc3c(cccc3-c3cc(N4CCOCC4)c(C(=O)O)cc3F)C2)cc1OC [Compound 4-55, 4-[3-[2-Chloro-5-methoxy-4-(2-methoxyethoxy)benzoyl]-2,4-dihydro-1,3-benzoxazin-8-yl]-5-fluoro-2-morpholin-4-ylbenzoic acid]
1.9 nM | COC1CC2(C1)CN(c1cc(Cl)c(C(=O)N3COc4c(cccc4-c4cc(N5CC6CCC(C5)O6)c(C(=O)O)cc4F)C3)c(Cl)c1)C2 [Compound 4-56, 4-[3-[2,6-Dichloro-4-(6-methoxy-2-azaspiro[3.3]heptan-2-yl)benzoyl]-2,4-dihydro-1,3-benzoxazin-8-yl]-5-fluoro-2-(8-oxa-3-azabicyclo[3.2.1]octan-3-yl)benzoic acid]
4.8 nM | CC1(N2CCN(c3cc(Cl)c(C(=O)N4COc5c(cccc5-c5cc(N6CCOCC6)c(C(=O)O)cc5F)C4)c(Cl)c3)CC2)COC1 [Compound 4-57, 4-[3-[2,6-Dichloro-4-[4-(3-methyloxetan-3-yl)piperazin-1-yl]benzoyl]-2,4-dihydro-1,3-benzoxazin-8-yl]-5-fluoro-2-morpholin-4-ylbenzoic acid]

Compound | EC50
O=C(O)c1cc(F)c(-c2cccc3c2OCN(C(=O)c2c(Cl)cc(OC[C@H]4CCCO4)cc2Cl)C3)cc1N1C2CCC1COC2 [Compound 4-34, 4-[3-[2,6-Dichloro-4-[[(2R)-oxolan-2-yl]methoxy]benzoyl]-2,4-dihydro-1,3-benzoxazin-8-yl]-5-fluoro-2-(3-oxa-8-azabicyclo[3.2.1]octan-8-yl)benzoic acid] | 3.8 nM
CC(C)(O)CCOc1cc(Cl)c(C(=O)N2COc3c(cccc3-c3cc(N4C5CCC4COC5)c(C(=O)O)cc3F)C2)c(Cl)c1 [Compound 4-35, 4-[3-[2,6-Dichloro-4-(3-hydroxy-3-methylbutoxy)benzoyl]-2,4-dihydro-1,3-benzoxazin-8-yl]-5-fluoro-2-(3-oxa-8-azabicyclo[3.2.1]octan-8-yl)benzoic acid] | 20 nM
O=C(O)c1cc(F)c(-c2cccc3c2OCN(C(=O)c2c(Cl)cc(OC[C@H]4CCOC4)cc2Cl)C3)cc1N1C2CCC1COC2 [Compound 4-38, 4-[3-[2,6-Dichloro-4-[[(3S)-oxolan-3-yl]methoxy]benzoyl]-2,4-dihydro-1,3-benzoxazin-8-yl]-5-fluoro-2-(3-oxa-8-azabicyclo[3.2.1]octan-8-yl)benzoic acid] | 5.1 nM
CCOc1cc(Cl)c(C(=O)N2COc3c(cccc3-c3cc(N4C5CCC4COC5)c(C(=O)O)cc3F)C2)c(Cl)c1 [Compound 4-39, 4-[3-(2,6-Dichloro-4-ethoxybenzoyl)-2,4-dihydro-1,3-benzoxazin-8-yl]-5-fluoro-2-(3-oxa-8-azabicyclo[3.2.1]octan-8-yl)benzoic acid] | 6.9 nM
COc1cc(Cl)c(C(=O)N2COc3c(cccc3-c3cc(N4C5CCC4COC5)c(C(=O)O)cc3F)C2)c(Cl)c1 [Compound 4-40, 4-[3-(2,6-Dichloro-4-methoxybenzoyl)-2,4-dihydro-1,3-benzoxazin-8-yl]-5-fluoro-2-(3-oxa-8-azabicyclo[3.2.1]octan-8-yl)benzoic acid] | 8.9 nM
O=C(O)c1cc(F)c(-c2cccc3c2OCN(C(=O)c2c(Cl)cc(OCC4CCOCC4)cc2Cl)C3)cc1N1C2CCC1COC2 [Compound 4-41, 4-[3-[2,6-Dichloro-4-(oxan-4-ylmethoxy)benzoyl]-2,4-dihydro-1,3-benzoxazin-8-yl]-5-fluoro-2-(3-oxa-8-azabicyclo[3.2.1]octan-8-yl)benzoic acid] | 4.7 nM
O=C(O)c1cc(F)c(-c2cccc3c2OCN(C(=O)c2c(Cl)cc(OC[C@@H]4COCCO4)cc2Cl)C3)cc1N1C2CCC1COC2 [Compound 4-42, 4-[3-[2,6-Dichloro-4-[[(2S)-1,4-dioxan-2-yl]methoxy]benzoyl]-2,4-dihydro-1,3-benzoxazin-8-yl]-5-fluoro-2-(3-oxa-8-azabicyclo[3.2.1]octan-8-yl)benzoic acid] | 4.4 nM
O=C(O)c1ccc(-c2cccc3c2OCN(C(=O)c2c(Cl)cc(OCCCCO)cc2Cl)C3)cc1N1CCOCC1 [Compound 4-43, 4-[3-[2,6-Dichloro-4-(4-hydroxybutoxy)benzoyl]-2,4-dihydro-1,3-benoxazin-8-yl]-2-morpholin-4-ylbenzoic acid] | 7.4 nM
CC(C)(O)CCOc1cc(Cl)c(C(=O)N2COc3c(cccc3-c3ccc(C(=O)O)c(N4CCOCC4)c3)C2)c(Cl)c1 [Compound 4-45, 4-[3-[2,6-Dichloro-4-(3-hydroxy-3-methylbutoxy)benzoyl]-2,4-dihydro-1,3-benzoxazin-8-yl]-2-morpholin-4-ylbenzoic acid] | 10 nM
O=C(O)c1cc(F)c(-c2cccc3c2OCN(C(=O)c2c(Cl)cc(OCCCCO)cc2Cl)C3)cc1N1CCOCC1 [Compound 4-51, 4-[3-[2,6-Dichloro-4-(4-hydroxybutoxy)benzoyl]-2,4-dihydro-1,3-benzoxazin-8-yl]-5-fluoro-2-morpholin-4-ylbenzoic acid] | 2.6 nM
